Measurements as given in patent publication US9233964B2, “Sulfamide piperazine derivatives as protein tyrosine kinase inhibitors and pharmaceutical use therof” (LEO PHARMA A/S, priority 2011, dated 2016).

Tests used:
Type in all cases: biochemical
JAK2 = biological target: T1, JAK2 (Homo sapiens, UniProt O60674); assay: JAK kinase assay (HTRF, phosphorylation of synthetic peptide), JAK2; conditions: catalytic domain, ATP at Km (4 μM); read-out: JAK2 kinase inhibitory activity (EC50)
T1 construct: All four purified enzymes contain only the catalytic domain; His (N); purchased Carna Biosciences, Inc; host or cells: baculovirus expression system
T1 sequence (O60674 849-1124 limits assumed): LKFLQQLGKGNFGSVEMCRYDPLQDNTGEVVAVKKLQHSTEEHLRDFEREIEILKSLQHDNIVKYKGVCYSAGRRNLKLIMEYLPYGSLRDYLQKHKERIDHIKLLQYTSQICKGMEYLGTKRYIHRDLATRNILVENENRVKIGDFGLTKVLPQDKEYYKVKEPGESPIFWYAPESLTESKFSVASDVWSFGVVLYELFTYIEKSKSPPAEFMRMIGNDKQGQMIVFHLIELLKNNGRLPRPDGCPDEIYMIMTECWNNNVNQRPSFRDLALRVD
In short: (§1)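 Catalytic-domain human JAK1 (GST-tagged, aa 850-1154) or His-tagged JAK2, baculovirus-expressed, phosphorylated 1 µM biotinylated TK peptide at Km ATP (JAK1 7 µM, 10 mM MgCl2, 50 nM SEB; JAK2 4 µM, 5 mM MgCl2) in pH 7.0 Hepes, 20-30 min RT. EDTA stop; overnight streptavidin-XL665/cryptate HTRF read.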

TYK2 = biological target: T2, TYK2 (Homo sapiens, UniProt P29597); assay: JAK kinase assay (HTRF, phosphorylation of synthetic peptide), TYK2; conditions: catalytic domain, ATP at Km (13 μM); read-out: TYK2 kinase inhibitory activity (EC50)
T2 construct: JAK1 (aa 850-1154) and TYK2 (aa 871-1187) are expressed with an N-terminally fused GST-tag; GST (N); purchased Carna Biosciences, Inc; host or cells: baculovirus expression system
T2 sequence (P29597 871-1187): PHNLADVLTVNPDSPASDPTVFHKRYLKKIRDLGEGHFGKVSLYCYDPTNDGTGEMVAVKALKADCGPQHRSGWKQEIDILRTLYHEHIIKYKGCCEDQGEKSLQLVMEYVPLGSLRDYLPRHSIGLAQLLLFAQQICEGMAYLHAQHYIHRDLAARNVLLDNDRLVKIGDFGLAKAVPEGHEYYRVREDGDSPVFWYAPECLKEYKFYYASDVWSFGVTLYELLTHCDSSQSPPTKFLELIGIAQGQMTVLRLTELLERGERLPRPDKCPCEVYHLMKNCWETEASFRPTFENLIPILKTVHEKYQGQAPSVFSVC
In short: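 1 µM biotinylated TK peptide at Km ATP in pH 7.0 Hepes, 20-30 min RT. EDTA stop; overnight streptavidin-XL665/cryptate HTRF read.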

JAK1 = biological target: T3, JAK1 (Homo sapiens, UniProt P23458); assay: JAK kinase assay (HTRF, phosphorylation of synthetic peptide), JAK1; conditions: catalytic domain, ATP at Km (7 μM); read-out: JAK1 kinase inhibitory activity (EC50)
T3 construct: JAK1 (aa 850-1154) and TYK2 (aa 871-1187) are expressed with an N-terminally fused GST-tag; GST (N); purchased Carna Biosciences, Inc; host or cells: baculovirus expression system
T3 sequence (P23458 850-1154): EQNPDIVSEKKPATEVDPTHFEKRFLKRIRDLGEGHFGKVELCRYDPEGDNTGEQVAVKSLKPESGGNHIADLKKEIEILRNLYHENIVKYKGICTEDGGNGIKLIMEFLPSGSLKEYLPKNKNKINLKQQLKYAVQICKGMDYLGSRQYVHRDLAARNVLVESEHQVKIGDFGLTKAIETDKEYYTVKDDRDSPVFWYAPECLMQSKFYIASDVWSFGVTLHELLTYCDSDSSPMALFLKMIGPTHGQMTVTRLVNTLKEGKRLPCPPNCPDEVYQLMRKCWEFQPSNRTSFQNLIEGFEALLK
In short: as §1

JAK3 = biological target: T4, JAK3 (Homo sapiens, UniProt P52333); assay: JAK kinase assay (HTRF, phosphorylation of synthetic peptide), JAK3; conditions: catalytic domain, ATP at Km (2 μM); read-out: JAK3 kinase inhibitory activity (EC50)
T4 construct: All four purified enzymes contain only the catalytic domain; His (N); purchased Carna Biosciences, Inc; host or cells: baculovirus expression system
T4 sequence (P52333 822-1111 limits assumed): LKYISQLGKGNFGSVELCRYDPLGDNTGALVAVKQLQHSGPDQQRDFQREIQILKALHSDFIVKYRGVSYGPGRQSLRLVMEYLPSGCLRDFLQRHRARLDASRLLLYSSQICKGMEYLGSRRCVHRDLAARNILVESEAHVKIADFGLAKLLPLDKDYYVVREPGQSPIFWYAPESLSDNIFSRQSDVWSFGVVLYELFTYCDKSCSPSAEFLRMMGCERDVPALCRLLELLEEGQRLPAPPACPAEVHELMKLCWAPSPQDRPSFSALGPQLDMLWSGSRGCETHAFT

EC50 (JAK2) [µM]	EC50 (TYK2) [µM]	EC50 (JAK1) [µM]	EC50 (JAK3) [µM]	Structure (SMILES)
< 0.1	< 0.1	< 0.1	< 0.1	CN(CCCC#N)S(=O)(=O)N1CCN(c2ncnc3[nH]ccc23)CC12CC2 [Example 35, 7-(7H-Pyrrolo[2,3-d]pyrimidin-4-yl)-4,7-diaza-spiro[2.5]octane-4-sulfonic acid (3-cyano-propyl)-methyl-amide]
< 0.1	< 0.1	< 0.1	< 0.1	N#CCN(CC1CCS(=O)(=O)CC1)S(=O)(=O)N1CCN(c2ncnc3[nH]ccc23)CC12CC2 [Example 169, N-(cyanomethyl)-N-[(1,1-dioxothian-4-yl)methyl]-5-(7H-pyrrolo[2,3-d]pyrimidin-4-yl)-5,8-diazaspiro[2.5]octane-8-sulfonamide]
< 0.1	< 0.1	< 0.1	< 0.1	CN(CCn1cccc1)S(=O)(=O)N1CCN(c2ncnc3[nH]ccc23)CC12CC2 [Example 26, 7-(7H-Pyrrolo[2,3-d]pyrimidin-4-yl)-4,7-diaza-spiro[2.5]octane-4-sulfonic acid methyl-(2-pyrrol-1-yl-ethyl)-amide]
0.1 to 0.5	> 0.5	0.1 to 0.5	> 0.5	CN(C[C@H]1CCCN1)S(=O)(=O)N1CCN(c2ncnc3[nH]ccc23)CC12CC2 [Int 51]
< 0.1	< 0.1	< 0.1	< 0.1	CN(C[C@H]1CCC(=O)N1)S(=O)(=O)N1CCN(c2ncnc3[nH]ccc23)CC12CC2 [Example 184, N-methyl-N-[[(2R)-5-oxopyrrolidin-2-yl]methyl]-5-(7H-pyrrolo[2,3-d]pyrimidin-4-yl)-5,8-diazaspiro[2.5]octane-8-sulfonamide]
< 0.1	> 0.5	< 0.1	0.1 to 0.5	CN(CCOc1ccc(Cl)cc1)S(=O)(=O)N1CCN(c2ncnc3[nH]ccc23)CC12CC2 [Example 69, N-[2-(4-chlorophenoxy)ethyl]-N-methyl-5-(7H-pyrrolo[2,3-d]pyrimidin-4-yl)-5,8-diazaspiro[2.5]octane-8-sulfonamide]
